Assay results from article PMC9240326, “BacPROTACs mediate targeted protein degradation in bacteria” (Cell, 2022).
Where a SMILES comes first, the peptide text is derived from it. [ ]: non-standard residue; d: D form. Phe(βR-OMe) = CO[C@H](c1ccccc1)[C@H](N)C(=O)O; NMeL = CN[C@@H](CC(C)C)C(=O)O; NMeK = CN[C@@H](CCCCN)C(=O)O

How the values were obtained:
[1] = target: B. subtilis ClpCP protease (Bacillus subtilis, UniProt P37571); type: biochemical
ClpC1NTD = ClpC1NTD (Mycolicibacterium smegmatis, UniProt A0R574); assay: biochemical; type: binding, Mycobacterium smegmatis
BRDTBD1 = BRDTBD1 (Homo sapiens, UniProt Q58F21); assay: Wes analysis of BRDTBD1 levels in M. smegmatis; type: cell-based; conditions: 30 min of incubation, relative to DMSO
[2] = Solubility in aqueous solutions (remark in ITC method); type: physicochemical

Sequence of ClpC1NTD (A0R574 1-148 limits assumed): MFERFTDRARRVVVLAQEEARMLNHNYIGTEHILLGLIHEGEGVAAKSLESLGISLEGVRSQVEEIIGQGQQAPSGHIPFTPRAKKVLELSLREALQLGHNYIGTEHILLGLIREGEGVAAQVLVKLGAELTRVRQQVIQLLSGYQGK
Sequence of B. subtilis ClpCP protease (P80244 whole entry): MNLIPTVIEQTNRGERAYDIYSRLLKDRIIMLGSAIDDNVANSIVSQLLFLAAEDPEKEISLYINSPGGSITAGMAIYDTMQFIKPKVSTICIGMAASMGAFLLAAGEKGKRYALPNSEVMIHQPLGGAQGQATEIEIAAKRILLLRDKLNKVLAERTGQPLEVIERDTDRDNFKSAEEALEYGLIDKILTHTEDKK
Sequence of B. subtilis ClpCP protease (P37571 whole entry): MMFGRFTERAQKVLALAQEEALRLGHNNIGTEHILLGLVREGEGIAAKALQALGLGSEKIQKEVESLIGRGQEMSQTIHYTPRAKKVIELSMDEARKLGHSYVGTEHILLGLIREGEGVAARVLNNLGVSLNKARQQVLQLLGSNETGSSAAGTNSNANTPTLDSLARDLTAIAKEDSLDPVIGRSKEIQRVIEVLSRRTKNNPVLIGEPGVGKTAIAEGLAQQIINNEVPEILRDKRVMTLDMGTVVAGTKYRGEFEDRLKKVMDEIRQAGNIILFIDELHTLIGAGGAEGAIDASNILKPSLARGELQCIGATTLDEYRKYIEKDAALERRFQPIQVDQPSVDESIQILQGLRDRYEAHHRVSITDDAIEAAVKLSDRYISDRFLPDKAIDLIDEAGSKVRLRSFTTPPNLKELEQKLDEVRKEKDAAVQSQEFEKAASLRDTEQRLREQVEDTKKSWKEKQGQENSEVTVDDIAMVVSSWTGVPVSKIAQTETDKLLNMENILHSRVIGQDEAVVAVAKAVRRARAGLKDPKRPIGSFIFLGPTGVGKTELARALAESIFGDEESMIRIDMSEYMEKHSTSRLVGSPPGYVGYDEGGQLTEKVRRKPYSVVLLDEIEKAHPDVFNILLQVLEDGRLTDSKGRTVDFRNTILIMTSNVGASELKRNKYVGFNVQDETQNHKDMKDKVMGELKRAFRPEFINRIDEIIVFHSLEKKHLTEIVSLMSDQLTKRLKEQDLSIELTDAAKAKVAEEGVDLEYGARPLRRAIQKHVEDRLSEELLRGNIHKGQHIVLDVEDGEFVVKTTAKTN

| Compound | mSA-Kre degradation by ClpCP, BacPROTAC-1 analogs [1] | Kd (ClpC1NTD) [nM] | BRDTBD1 levels in M. smegmatis (Wes) (BRDTBD1) | Solubility in aqueous solutions [2] |
| --- | --- | --- | --- | --- |
| CC(=O)NC(CCCNC(=N)N)C(=O)NCCOCCOCCC(=O)NCCOCCOCCC(=O)NCCOCCOCCC(=O)NC(CCCCNC(=O)CCCCC1SCC2NC(=O)NC21)C(N)=O (stereo not shown) [BacPROTAC-1c] | did not induce substrate degradation | – | – | – |
| CC[C@H](C)[C@@H]1NC(=O)[C@H](CC(C)C)N(C)C(=O)[C@H](C(C)C)NC(=O)[C@H]([C@H](OC)c2ccccc2)NC(=O)[C@H](C)NC(=O)[C@H](CCCCN)N(C)C(=O)[C@H](Cc2c[nH]c3ccccc23)NC1=O [sCym-1] (cyclo(W[NMeK]A[Phe(βR-OMe)]V[NMeL]I)) | – | 810 | did not significantly alter BRDTBD1 levels | low solubility |
